Literature values, collected in patent US20130011354A1, “Compositions For Enhancing Hair Growth” (Allergan, Inc., priority 2009, published 2013).

Test system: eyelashes
Settings: Lumigan ophthalmic solution applied in the FDA approved manner for glaucoma

In the case of `CCNC(=O)CCC/C=C\C[C@@H]1[C@@H](/C=C/[C@@H](O)CCc2ccccc2)[C@H](O)C[C@@H]1O` [Bimatoprost, cyclopentane N-ethyl heptanamide-5-cis-2-(3α-hydroxy-5-phenyl-1-trans-pentenyl)-3,5-dihydroxy, [1α,2β,3α,5α]], the growth of eyelashes is given as “effective to increase the growth of eyelashes”.
